Structures are written as SMILES. Like-named read-outs stand apart in the source and are kept apart here.

In this experiment the test system is NLRP3. The experiment in a line: IL-1β secretion assay in PMA-differentiated, LPS/nigericin-stimulated THP-1 cells (384-well, ELISA read-out). It counts as cell-based, human. As to conditions: Homo sapiens. Put shortly:
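Secreted IL-1β quantified by capture ELISA from supernatants of PMA-differentiated THP-1 cells (30K per well). Sequence: LPS 25 ng/mL priming 2 h, compound 1 h, nigericin 2 h; dose-responses normalized between high (LPS plus 5 μM nigericin) and low (LPS alone) controls.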

[1] abbreviates: THP-1, IL-1β secretion, PMA-differentiated THP-1 cells, LPS then nigericin stimulation, ELISA read at 450 nm, read-out: Activity.
Where [2] appears, read: THP-1, Table 4, IL-1β secretion, LPS/nigericin-stimulated THP-1 cells, read-out: IC50.

With `O=C(CN1CC2(CC2)c2cc(Br)ccc2C1=O)Nc1ncc(C2CCOC2)cn1` (centres unmarked) [Example 258, 2-(6-bromo-1-oxospiro[3H-isoquinoline-4,1′-cyclopropane]-2-yl)-N-[5-(oxolan-3-yl)pyrimidin-2-yl]acetamide], the IC50 reads like this: under setting [1], less than 10000 nM; under setting [2], 526 nM.
As to `Cc1nc(NC(=O)CN2CC3(CC3)c3cc(Br)ccc3C2=O)ncc1C#N` [Example 259, 2-(6-bromo-1-oxospiro[3H-isoquinoline-4,1′-cyclopropane]-2-yl)-N-(5-cyano-4-methylpyrimidin-2-yl)acetamide], the IC50 was less than 10000 nM under setting [1] and 437 nM under setting [2].
In the case of `O=C(CN1CC2(CC2)c2cc(Br)ccc2C1=O)Nc1nc2cnccn2n1` [Example 260, 2-(6-bromo-1-oxospiro[3H-isoquinoline-4,1′-cyclopropane]-2-yl)-N-([1,2,4]triazolo[1,5-a]pyrazin-2-yl)acetamide], the IC50 reads like this: under setting [1], less than 10000 nM; under setting [2], 205 nM.
Take `O=C(CN1CC2(CC2)c2cc(Br)ccc2C1=O)Nc1nc2cc(Cl)ccn2n1` [Example 261, 2-(6-bromo-1-oxospiro[3H-isoquinoline-4,1′-cyclopropane]-2-yl)-N-(7-chloro-[1,2,4]triazolo[1,5-a]pyridin-2-yl)acetamide]: the IC50 under setting [1] is less than 10000 nM and the IC50 under setting [2] worked out at 224 nM.
The like results for `COc1ccc2nc(NC(=O)CN3CC4(CC4)c4cc(Br)ccc4C3=O)nn2c1` [Example 262, 2-(6-bromo-1-oxospiro[3H-isoquinoline-4,1′-cyclopropane]-2-yl)-N-(6-methoxy-[1,2,4]triazolo[1,5-a]pyridin-2-yl)acetamide] were, in that order, less than 10000 nM and 253 nM.
The like results for `O=C(CN1CC2(CC2)c2cc(Br)ccc2C1=O)Nc1nc2ccc(F)cn2n1` [Example 263, 2-(6-bromo-1-oxospiro[3H-isoquinoline-4,1′-cyclopropane]-2-yl)-N-(6-fluoro-[1,2,4]triazolo[1,5-a]pyridin-2-yl)acetamide] were, in that order, less than 10000 nM and 281 nM.
In the same order, the values of `O=C(CN1CC2(CC2)c2cc(Br)ccc2C1=O)Nc1nc2ccc(Cl)cn2n1` [Example 264, 2-(6-bromo-1-oxospiro[3H-isoquinoline-4,1′-cyclopropane]-2-yl)-N-(6-chloro-[1,2,4]triazolo[1,5-a]pyridin-2-yl)acetamide] are less than 10000 nM and 312 nM.
Consider `O=C(CN1CC2(CC2)c2cc(Br)ccc2C1=O)Nc1nc2cc(C(F)(F)F)ccn2n1` [Example 265, 2-(6-bromo-1-oxospiro[3H-isoquinoline-4,1′-cyclopropane]-2-yl)-N-[7-(trifluoromethyl)-[1,2,4]triazolo[1,5-a]pyridin-2-yl]acetamide], for which the IC50 under setting [1] is less than 10000 nM and the IC50 under setting [2] came out at 335 nM.
The like results for `O=C(CN1CC2(CC2)c2cc(Br)ccc2C1=O)Nc1nc2ccc(F)cc2o1` [Example 267, 2-(6-bromo-1-oxospiro[3H-isoquinoline-4,1′-cyclopropane]-2-yl)-N-(6-fluoro-1,3-benzoxazol-2-yl)acetamide] were, in that order, less than 10000 nM and 359 nM.
With `O=C(CN1CC2(CC2)c2cc(Br)ccc2C1=O)N[C@@H]1CCCN(C2CC2)C1` [Example 268, 2-(6-bromo-1-oxospiro[3H-isoquinoline-4,1′-cyclopropane]-2-yl)-N-[(3R)-1-cyclopropylpiperidin-3-yl]acetamide], the IC50 under setting [1] is less than 10000 nM and the IC50 under setting [2] was 192 nM.
In the same order, the values of `O=C(CN1CC2(CC2)c2cc(Br)ccc2C1=O)Nc1ncc(I)cn1` [Example 269, 2-(6-bromo-1-oxospiro[3H-isoquinoline-4,1′-cyclopropane]-2-yl)-N-(5-iodopyrimidin-2-yl)acetamide] are less than 10000 nM and 87 nM.
With `O=C(CN1CC2(CC2)c2cc(Br)ccc2C1=O)Nc1ncc(OC(F)F)cn1` [Example 270, 2-(6-bromo-1-oxospiro[3H-isoquinoline-4,1′-cyclopropane]-2-yl)-N-[5-(difluoromethoxy)pyrimidin-2-yl]acetamide], the IC50 under setting [1] was less than 10000 nM and the IC50 under setting [2] was found to be 286 nM.
In the same order, the values of `O=C(CN1C[C@]2(C[C@H]2F)c2cc(Br)ccc2C1=O)Nc1nc2ccccn2n1` [Example 271] are less than 10000 nM and 29 nM.
As to `N#Cc1cnc(NC(=O)CN2C[C@]3(C[C@H]3F)c3cc(Br)ccc3C2=O)nc1` [Example 272], the IC50 is less than 10000 nM under setting [1] and 14 nM under setting [2].
In the same order, the values of `C=C(F)c1ccc2c(c1)[C@@]1(C[C@H]1F)CN(CC(=O)Nc1ncc(F)cn1)C2=O` [Example 273] are less than 10000 nM and 59 nM.
In the same order, the values of `Cc1cnc(NC(=O)CN2C[C@]3(C[C@H]3F)c3cc(Br)ccc3C2=O)nc1` [Example 274] are less than 10000 nM and 23 nM.
Take `N#Cc1cnc(NC(=O)CN2C[C@]3(C[C@H]3F)c3cc(Br)ccc3C2=O)c(F)c1` [Example 275, 2-[(2′r,4s)-6-bromo-2′-fluoro-1-oxospiro[3H-isoquinoline-4,1′-cyclopropane]-2-yl]-N-(5-cyano-3-fluoropyridin-2-yl)acetamide]: the IC50 runs as follows: under setting [1], less than 10000 nM; under setting [2], 70 nM.
In the case of `O=C(CN1C[C@]2(C[C@H]2F)c2cc(Cl)ccc2C1=O)Nc1ncc(F)cn1` [Example 276], the IC50 under setting [1] is less than 10000 nM and the IC50 under setting [2] was 79 nM.
The like results for `C[C@@H](F)[C@H]1CN(CC(=O)Nc2ncc(F)cn2)C(=O)c2ccc(Br)cc21` [Example 294, 2-[(4r)-6-bromo-4-[(1r)-1-fluoroethyl]-1-oxo-3,4-dihydroisoquinolin-2-yl]-N-(5-fluoropyrimidin-2-yl)acetamide] were, in that order, less than 10000 nM and 203 nM.
On to `O=C(CN1CC(C(F)(F)F)c2cc(I)ccc2C1=O)Nc1ncc(F)cn1` (centres unmarked) [Example 301, N-(5-fluoropyrimidin-2-yl)-2-[6-iodo-1-oxo-4-(trifluoromethyl)-3,4-dihydroisoquinolin-2-yl]acetamide], for which the IC50 is, setting by setting: under setting [1], less than 10000 nM; under setting [2], 27 nM.
In the same order, the values of `C#Cc1ccc2c(c1F)C1(CC1)CN(CC(=O)Nc1ncc(F)cn1)C2=O` [Example 302, 2-(6-ethynyl-5-fluoro-1-oxospiro[3H-isoquinoline-4,1′-cyclopropane]-2-yl)-N-(5-fluoropyrimidin-2-yl)acetamide] are less than 10000 nM and 539 nM.
For `O=C(CN1CC2(CC2)c2c(ccc(C3(F)CC3)c2F)C1=O)Nc1ncc(F)cn1` [Example 307, 2-[5-fluoro-6-(1-fluorocyclopropyl)-1-oxospiro[3H-isoquinoline-4,1′-cyclopropane]-2-yl]-N-(5-fluoropyrimidin-2-yl)acetamide], the IC50 under setting [2] came to 898 nM.
On to `O=C(CN1C[C@]2(C[C@H]2F)c2cc(Br)ccc2C1=O)Nc1ncc(C(F)(F)F)cn1` [Example 308, 2-[(2′R,4S)-6-bromo-2′-fluoro-1-oxospiro[3H-isoquinoline-4,1′-cyclopropane]-2-yl]-N-[5-(trifluoromethyl)pyrimidin-2-yl]acetamide], for which, under setting [2], the IC50 came to 25 nM.
Turning to `O=C(CN1CC2(CC2)c2cc(Br)ccc2C1=O)Nc1ncc(C2CC2(F)F)cn1` (centres unmarked) [Example 309, 2-(6-bromo-1-oxospiro[3H-isoquinoline-4,1′-cyclopropane]-2-yl)-N-[5-(2,2-difluorocyclopropyl)pyrimidin-2-yl]acetamide], under setting [2], the IC50 stood at 696 nM.
Consider `O=C(CN1CC2(CC2)c2c(ccc(OC(F)F)c2F)C1=O)Nc1ncc(F)cn1` [Example 310, 2-[6-(difluoromethoxy)-5-fluoro-1-oxospiro[3H-isoquinoline-4,1′-cyclopropane]-2-yl]-N-(5-fluoropyrimidin-2-yl)acetamide], for which, under setting [2], the IC50 stood at 1060 nM.
Still for that read-out and setting: the value for `O=C(CN1CC2(CC2)c2nc(C3CC3)ccc2C1=O)Nc1ncc(F)cn1` [Example 311, 2-(2-cyclopropyl-5-oxospiro[7H-1,6-naphthyridine-8,1′-cyclopropane]-6-yl)-N-(5-fluoropyrimidin-2-yl)acetamide] was 1410 nM; that for `CC(F)c1ccc2c(c1)C1(CC1)CN(CC(=O)Nc1ncc(F)cn1)C2=O` (centres unmarked) [Example 312, 2-[6-(1-fluoroethyl)-1-oxospiro[3H-isoquinoline-4,1′-cyclopropane]-2-yl]-N-(5-fluoropyrimidin-2-yl)acetamide] was 1020 nM.
Still for that read-out and setting: under `CCc1ccc2c(c1)C1(CC1)CN(CC(=O)Nc1ncc(F)cn1)C2=O` [Example 314, 2-(6-ethyl-1-oxospiro[3H-isoquinoline-4,1′-cyclopropane]-2-yl)-N-(5-fluoropyrimidin-2-yl)acetamide] stands 784 nM; under `O=C(CN1CC2(CC2)c2c(ccc3sccc23)C1=O)Nc1ncc(F)cn1` [Example 315, N-(5-fluoropyrimidin-2-yl)-2-(6-oxospiro[8H-thieno[3,2-f]isoquinoline-9,1′-cyclopropane]-7-yl)acetamide], 8920 nM; under `COCOc1cnc(NC(=O)CN2CC3(CC3)c3cc(Br)ccc3C2=O)nc1` [Example 316, 2-(6-bromo-1-oxospiro[3H-isoquinoline-4,1′-cyclopropane]-2-yl)-N-[5-(methoxymethoxy)pyrimidin-2-yl]acetamide], 704 nM.
The same measure, in the same setting: the value for `CC1(O)CC(NC(=O)CN2C[C@]3(C[C@H]3F)c3cc(Br)ccc3C2=O)C1` (stereo partly drawn) [Example 321, N-(cis-3-hydroxy-3-methylcyclobutyl)-2-[(2′R,4S)-6-bromo-2′-fluoro-1-oxospiro[3H-isoquinoline-4,1′-cyclopropane]-2-yl]acetamide] was 9 nM; that for `O=C(CN1CC2(CC2(F)F)c2c(ccc(C3CC3)c2F)C1=O)Nc1ncc(F)cn1` (centres unmarked) [Example 322, N-(5-fluoropyrimidin-2-yl)-2-[6-cyclopropyl-1′,1′,5-trifluoro-1-oxospiro[3H-isoquinoline-4,2′-cyclopropane]-2-yl]acetamide] was 38 nM.

The record behind these values is US20230416205A1, “COMPOUNDS, COMPOSITIONS, AND METHODS” (Denali Therapeutics Inc, priority 2020, published 2023).
